In publication PMC9633586 (Biochemistry, 2022):

Target: Cj1438 (Campylobacter jejuni, UniProt Q0P8H6)
Test: […] NMR, formation of S-11
Format: biochemical
Conditions: 20 mM MgCl2, 10 mM ATP, 10 mM D-glucuronate, 50 mM HEPES/K+ pH 8.0, 25 °C

N[C@@H](CO)COP(=O)(O)O [S-4, S-serinol phosphate]
31P NMR, formation of S-11: Cj1438 catalyzes the formation of compound S-11 using D-glucuronate, MgATP, and S-serinol phosphate (S-4).
